Results as given in paper PMC5663395, “Chemical Validation of Methionyl-tRNA Synthetase as a Druggable Target in Leishmania donovani” (ACS Infectious Diseases, 2017).

How the values were obtained:
[1] = Plasma protein binding, equilibrium dialysis, mouse plasma; format: in vitro ADME; conditions: female, CD1, read-out: fu (unbound fraction)
Protocol: which gave the best fit to the data was then recorded as the logP. Using the logP and an experimentally determined pKa (see above), the software generated a lipophilicity plot showing changes in the logD with increasing pH and from this plot a logD7.3 and logD5.6 values were recorded.
Plasma Protein Binding Determination
A 96-well equilibrium dialysis apparatus was used to determine the free fraction in plasma for DDD806905 (HT Dialysis LLC, Gales Ferry, CT). Membranes (12-14 kDA cut-off) were conditioned in deionised water for 60 minutes, followed by conditioning in 80:20 deionised water:ethanol for 20 minutes, and then rinsed in isotonic buffer before use. Female CD1 mouse plasma or human plasma was removed from the freezer and allowed to thaw on the day of experiment. Thawed plasma was then centrifuged (Allegra X12-R, Beckman Coulter, USA), spiked with test compound (final concentration 10 μg/ml), and 150 μL aliquots (n=6 replicate determinations) loaded into the 96-well equilibrium dialysis plate. […] All samples were analysed by UPLC-MS/MS on a Quattro Premier XE Mass Spectrometer (Waters Corporation, USA).
The unbound fraction (fu) was determined as the ratio of the peak area in buffer to that in plasma. […]

[2] = test system: mitochondrial protein synthesis in H9C2 cells; test: Mitochondrial protein synthesis assay (COX-1/SDH-A In-Cell ELISA); format: cell-based; conditions: COX-1/SDH-A ratio, average of three experiments
[3] = in vivo; conditions: female, Balb/c, mouse, iv
[4] = target: LdMetRS (Leishmania donovani, UniProt A0A3Q8IBX2); test: LdMetRS biochemical enzyme assay (BIOMOL Green)
Chain of LdMetRS (A0A3Q8IBX2 entry or part of it): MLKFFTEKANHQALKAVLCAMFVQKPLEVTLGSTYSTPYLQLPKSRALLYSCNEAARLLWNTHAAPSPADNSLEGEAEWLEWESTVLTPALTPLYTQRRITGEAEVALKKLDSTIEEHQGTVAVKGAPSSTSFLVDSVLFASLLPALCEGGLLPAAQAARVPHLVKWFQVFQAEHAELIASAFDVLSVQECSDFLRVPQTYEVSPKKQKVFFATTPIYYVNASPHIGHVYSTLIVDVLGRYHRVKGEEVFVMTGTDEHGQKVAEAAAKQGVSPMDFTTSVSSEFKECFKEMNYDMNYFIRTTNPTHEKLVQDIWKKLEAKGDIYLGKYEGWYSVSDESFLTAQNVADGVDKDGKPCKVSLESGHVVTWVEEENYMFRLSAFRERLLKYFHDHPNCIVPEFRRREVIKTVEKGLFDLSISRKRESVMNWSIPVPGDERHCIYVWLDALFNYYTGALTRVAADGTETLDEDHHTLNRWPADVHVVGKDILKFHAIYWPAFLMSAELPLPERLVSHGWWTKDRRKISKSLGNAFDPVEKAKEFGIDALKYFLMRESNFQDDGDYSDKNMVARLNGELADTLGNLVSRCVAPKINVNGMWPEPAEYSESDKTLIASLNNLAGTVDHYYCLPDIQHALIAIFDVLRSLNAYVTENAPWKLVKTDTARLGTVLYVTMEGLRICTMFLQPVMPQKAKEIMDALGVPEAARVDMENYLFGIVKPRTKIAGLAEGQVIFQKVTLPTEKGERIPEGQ
Protocol: LdMetRS Assay Development and Kinetic Parameter Determinations
Activity of the LdMetRS enzyme was determined by monitoring levels of pyrophosphate released during the first step of the enzymatic reaction. The pyrophosphate formed was converted to two inorganic phosphate molecules using a pyrophosphatase enzyme and levels of the resulting phosphate molecules measured using the BIOMOL® Green reagent (Enzo Life Sciences) 2.
Following optimization of the assay buffer and determination of the enzyme linearity, 384-well plate based assays were carried out at room temperature in a 50 μl reaction volume containing 30 mM Tris, pH 8.0, 140 mM NaCl, 30 mM KCl, 40 mM MgCl2, 0.01% (v/v) Brij-35, 1 mM DTT, 1 U/ml pyrophosphatase, 50 nM recombinant LdMetRS, and varying concentrations of substrates. Michaelis constants for the ATP and methionine substrates were determined in an end point assay using the above buffer and enzyme conditions. Data were fitted to the modified Michaelis-Menten equations […]
Equation 1 (Hill equation): […]
Equation 2 (High substrate inhibition Michaelis-Menten equation): […]
LdMetRS Inhibitor Studies
All test compounds were solubilized in 100% DMSO to a concentration of 10 mM. To generate IC50 data for the compounds, assay ready plates containing 10-point inhibitor curves (half-log serial dilutions) were prepared using an Echo® 550 (Labcyte).
Following preparation of the inhibitor curves, assays were carried out at room temperature in clear, flat bottom, polystyrene, 384-well plates (Greiner). Each assay was performed in a 50 μl reaction volume containing 30 mM Tris; pH 8.0, 140 mM NaCl, 30 mM KCl, 40 mM MgCl2, 0.01% (v/v) Brij-35, 1 mM DTT, 1 U/ml pyrophosphatase, 50 nM recombinant LdMetRS, 50 µM methionine and 100 µM […]
Assays were performed by adding 25 μl buffer with enzyme to assay plates (with buffer only added to ‘no enzyme’ control wells) before the reaction was initiated with the addition of a 25 μl mix containing methionine, ATP and pyrophosphatase to all wells. Following a 120 min reaction at room temperature the assay was stopped with the addition of 50 μl BIOMOL® Green. The BIOMOL® Green signal was allowed to develop for 30 min before the absorbance of each well was read at 650 nm using an EnVision multilabel plate reader (PerkinElmer Life Sciences). All liquid dispensing steps were carried out using a Thermo Scientific WellMate dispenser (Matrix).
ActivityBase from IDBS (version 8.0.5.4) was used for data processing and analysis. All IC50 curve fitting was undertaken using ActivityBase XE (version 7.7.1) from IDBS. A four-parameter logistic dose-response curve was utilized with prefit used for all four parameters.
For DDD806905 Kiapp determinations, data fitting to the Morrison equation (equation 3) was carried out using GraFit v6.0 (Erithacus Software). It should be noted that data for fitting to the Morrison equation was normalised to a ‘100 µM DDD806905’ control rather than a ‘no enzyme’ control as […]
Equation 3 (Morrison equation): […]
vi = K1 −−([ ] [ ]ET+IT+Ki)−([ ] [ ]ET+IT+i)[ ] [ ]TIE4T
LdMetRS Mode of Inhibition Studies
To establish the mode of inhibition of DDD806905, data sets (generated using the BIOMOL® Green assay platform previously described) were collected by varying both the inhibitor and substrate concentrations. Using GraFit v6.0 (Erithacus Software) each data set was individually fitted to the Michaelis-Menten equation or the modified high substrate inhibition Michaelis-Menten equation described above (equation 2), and the resulting Lineweaver-Burk plots were examined for diagnostic […]
Data sets were then globally fitted to the appropriate model (with equations 4 and 5 used for […]
If more than one model appeared possible, then data were fitted to both and examined for significance using the F-test function in GraFit.

## Cl.Cl.O=c1nc(NCCCNCc2cc3c(Cl)cc(Cl)cc3[nH]2)[nH]c2ccccc12 [DDD806905, 2-((3-(((4,6-dichloro-1H-indol-2-yl)methyl)amino)propyl)amino)quinazolin-4(1H)-one dihydrochloride]
[1]
  fraction unbound at 5 h, 10 μg/ml: 0.006
[2]; H9C2 cells
  IC50: 1700 nM
[2]; Rattus norvegicus, H9c2, H9C2 cells
  IC50: 1680 nM
[3]
  Vd: 6 L/kg
[4]
  mode of inhibition with respect to ATP: mixed inhibition
  mode of inhibition with respect to methionine: competitive inhibition
[4]; Ki app (Morrison equation), active enzyme concentration 39 nM as constant
  Ki: 41 nM
[4]; Ki, competitive inhibition with respect to methionine, global competitive inhibition model, Ki ± SE
  Ki: 18 nM
[4]; Ki, mixed inhibition with respect to ATP, mixed inhibition model, Ki ± SE
  Ki: 21 nM
[4]; LdMetRS IC50 (μM), Table 1
  IC50: 0.09 µM
[4]; LdMetRS IC50, 50 nM LdMetRS, 50 μM methionine, 100 μM ATP
  IC50: 0.094 µM
[4]; LdMetRS IC50, Fig S5A: methionine 50 µM, ATP 500 µM
  IC50: 0.11 µM
[4]; LdMetRS IC50, Fig S5A: methionine 500 µM, ATP 500 µM
  IC50: 0.433 µM
[4]; LdMetRS IC50, Fig S5B: ATP 50 µM, methionine 500 µM
  IC50: 0.098 µM
[4]; LdMetRS IC50, Fig S5B: ATP 500 µM, methionine 500 µM
  IC50: 0.38 µM
[4]; LdMetRS IC50, Fig S5C: methionine and ATP both 50 µM
  IC50: 0.037 µM
[4]; LdMetRS IC50, Fig S5C: methionine and ATP both 500 µM
  IC50: 0.433 µM
[4]; mixed inhibition model, ATP as variable substrate
  Ki′ (ATP mode of inhibition study): 227 ± 23 nM
